Results taken from ChEMBL document CHEMBL1201862, “PubChem BioAssay data set” (2004).
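Grown in 96-well plates, cells were treated for 48 hours with each compound at five concentrations. Insufficient inhibition: endpoint recorded as highest concentration tested. At the GI50, growth is halved.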 The source made the active and inactive calls. Rule as the data show it: active = GI50 up to about 1.1 µM and inactive = higher.

Tests used:
Test in all cases: DTP human tumour cell line panel, 48 h
A498 = tested on: A498
ACHN = tested on: ACHN
Hs-578T = tested on: Hs-578T
IGROV-1 = tested on: IGROV-1
KM12 = tested on: KM12
MDA-N = tested on: MDA-N
NCI-H226 = tested on: NCI-H226
NCI-H23 = tested on: NCI-H23
NCI-H460 = tested on: NCI-H460
OVCAR-5 = tested on: OVCAR-5
PC-3 = tested on: PC-3
RPMI-8226 = tested on: RPMI-8226
RXF 393 = tested on: RXF 393
SF-268 = tested on: SF-268
SNB-75 = tested on: SNB-75
SR = tested on: SR
UACC-62 = tested on: UACC-62
HOP-62 = tested on: HOP-62
SK-MEL-28 = tested on: SK-MEL-28

SMILES	GI50 (A498)	GI50 (ACHN)	GI50 (Hs-578T)	GI50 (IGROV-1)	GI50 (KM12)	GI50 (MDA-N)	GI50 (NCI-H226)	GI50 (NCI-H23)	GI50 (NCI-H460)	GI50 (OVCAR-5)	GI50 (PC-3)	GI50 (RPMI-8226)	GI50 (RXF 393)	GI50 (SF-268)	GI50 (SNB-75)	GI50 (SR)	GI50 (UACC-62)	GI50 (HOP-62)	GI50 (SK-MEL-28)
COc1ccc(NC=O)c(C(=O)CCNC(C)=O)c1	> 100 µM (inactive)	> 100 µM (inactive)	> 100 µM (inactive)	> 100 µM (inactive)	> 100 µM (inactive)	> 100 µM (inactive)	> 100 µM (inactive)	> 100 µM (inactive)	> 100 µM (inactive)	> 100 µM (inactive)	> 100 µM (inactive)	> 100 µM (inactive)	> 100 µM (inactive)	> 100 µM (inactive)	> 100 µM (inactive)	> 100 µM (inactive)	> 100 µM (inactive)		
CCOC(=O)c1ccc(-c2cccs2)n1C	> 100 µM (inactive)	> 100 µM (inactive)	43.4 µM (inactive)	> 80.7 µM (inactive)	> 100 µM (inactive)	> 96.2 µM (inactive)	> 100 µM (inactive)	> 86.7 µM (inactive)	> 100 µM (inactive)	> 100 µM (inactive)	> 100 µM (inactive)	84.5 µM (inactive)	> 66.5 µM (inactive)	> 100 µM (inactive)	> 100 µM (inactive)	> 64.9 µM (inactive)	58.5 µM (inactive)	> 55.5 µM (inactive)	> 100 µM (inactive)
O=C(/C=C/c1ccco1)CC(=O)/C=C/c1ccco1	20.9 µM (inactive)	14.8 µM (inactive)	16.4 µM (inactive)	16.8 µM (inactive)	28.8 µM (inactive)	8.04 µM (inactive)	> 10 µM (inactive)	12.2 µM (inactive)	14.4 µM (inactive)	16.9 µM (inactive)	> 10 µM (inactive)	8.38 µM (inactive)	4.58 µM (inactive)	> 10 µM (inactive)	18 µM (inactive)	4.66 µM (inactive)	13.5 µM (inactive)	11.7 µM (inactive)	12.2 µM (inactive)
O=c1c2nn3c(=O)n(-c4ccccc4)c(=O)c3nn2c(=O)n1-c1ccccc1	50.4 µM (inactive)	> 100 µM (inactive)	> 100 µM (inactive)	> 100 µM (inactive)	> 100 µM (inactive)	> 100 µM (inactive)	> 100 µM (inactive)	> 100 µM (inactive)	> 100 µM (inactive)	> 100 µM (inactive)	> 100 µM (inactive)	> 100 µM (inactive)	> 100 µM (inactive)	> 100 µM (inactive)	81.3 µM (inactive)	> 100 µM (inactive)	> 100 µM (inactive)	> 100 µM (inactive)	> 100 µM (inactive)
C=C1C(=O)O[C@H]2C1C[C@@H](O)/C(C)=C/CC[C@@]1(C)O[C@H]21 (stereo partly specified)	25 µM (inactive)	9.27 µM (inactive)	31.3 µM (inactive)	12.7 µM (inactive)	> 100 µM (inactive)	10.3 µM (inactive)	> 54.3 µM (inactive)	13.6 µM (inactive)	22.4 µM (inactive)	> 39.4 µM (inactive)	23 µM (inactive)	4.76 µM (inactive)	7.62 µM (inactive)	39 µM (inactive)	16.4 µM (inactive)	7.64 µM (inactive)	24.7 µM (inactive)	> 59.6 µM (inactive)	15.2 µM (inactive)
ClCc1nn(-c2ccccc2)c(CCl)c1CCl	12 µM (inactive)	2.96 µM (inactive)	14.5 µM (inactive)	3.44 µM (inactive)	3.37 µM (inactive)	2.88 µM (inactive)	4.45 µM (inactive)	4.46 µM (inactive)	2.66 µM (inactive)	7.16 µM (inactive)	5.71 µM (inactive)	2.52 µM (inactive)	4.82 µM (inactive)	3.27 µM (inactive)	1.74 µM (inactive)	0.813 µM (active)	3.47 µM (inactive)	15.8 µM (inactive)	5.32 µM (inactive)
Cc1cccc2c(N)c3cccc(C(=O)NCC[N+](C)(C)Cc4c([N+](=O)[O-])ncn4C)c3nc12	47.6 µM (inactive)	10.8 µM (inactive)	31.2 µM (inactive)	27.3 µM (inactive)	29 µM (inactive)	47.1 µM (inactive)	29.2 µM (inactive)	17.5 µM (inactive)		23.6 µM (inactive)	36.6 µM (inactive)	31.4 µM (inactive)	48 µM (inactive)	28.2 µM (inactive)	27.4 µM (inactive)	23 µM (inactive)	33.7 µM (inactive)	10.4 µM (inactive)	> 100 µM (inactive)
CC(C)(C)OC(=O)N1C(C2=COc3ccccc3O2)=COc2ccccc21	17.1 µM (inactive)	24.7 µM (inactive)	41.5 µM (inactive)	9.75 µM (inactive)	29.9 µM (inactive)	32.4 µM (inactive)	23.8 µM (inactive)	29.7 µM (inactive)	28.9 µM (inactive)	33.3 µM (inactive)	32.8 µM (inactive)	13.9 µM (inactive)	5.18 µM (inactive)	21.3 µM (inactive)	35 µM (inactive)	21.1 µM (inactive)	15.7 µM (inactive)	15.5 µM (inactive)	30.1 µM (inactive)
O=C(N/N=C\c1ccc([N+](=O)[O-])cc1)Nc1ccc2ccccc2c1	24.2 µM (inactive)	51.5 µM (inactive)	26 µM (inactive)	26.1 µM (inactive)	23.3 µM (inactive)	40.7 µM (inactive)	32.6 µM (inactive)	58.3 µM (inactive)	18.5 µM (inactive)	34.8 µM (inactive)	44.8 µM (inactive)	52.8 µM (inactive)	> 100 µM (inactive)	35.1 µM (inactive)	27.2 µM (inactive)	20.6 µM (inactive)	28.1 µM (inactive)	22.2 µM (inactive)	46.5 µM (inactive)
CC(=O)c1ccc2c(c1)C(=O)c1sc(C(C)=O)cc1C2=O	21.6 µM (inactive)	0.736 µM (active)	1.46 µM (inactive)	1.07 µM (active)	1.01 µM (active)	0.796 µM (active)	1.04 µM (active)	1.09 µM (active)	1.37 µM (inactive)	1.08 µM (active)	1.82 µM (inactive)	1.74 µM (inactive)	1.3 µM (inactive)	1.17 µM (inactive)	1.67 µM (inactive)	0.419 µM (active)	0.995 µM (active)	1.73 µM (inactive)	2.25 µM (inactive)
Cc1ccc2c(O)cc(-c3ccsc3)nc2n1	4.07 µM (inactive)	6.98 µM (inactive)	3.82 µM (inactive)	4.74 µM (inactive)	4.33 µM (inactive)	0.454 µM (active)	4.13 µM (inactive)	2.77 µM (inactive)	4.01 µM (inactive)	15.8 µM (inactive)	4.81 µM (inactive)	2.2 µM (inactive)	7.53 µM (inactive)	14.4 µM (inactive)	3.14 µM (inactive)	0.361 µM (active)	4.61 µM (inactive)	10.8 µM (inactive)	7.23 µM (inactive)
